Assays:
Escherichia coli [1] = assay: Antibacterial activity against Escherichia coli MG1655 harboring pGrpE-lux assessed as maximum induction factor at 10^-10 M after 120 mins by luminometric analysis; assay type: functional, K-12 substr. MG1655
Escherichia coli [2] = assay: Antibacterial activity against Escherichia coli MG1655 harboring pRecA-lux assessed as maximum induction factor at 10^-6 M after 120 mins by luminometric analysis; assay type: functional, K-12 substr. MG1655
Escherichia coli [3] = assay: Antibacterial activity against Escherichia coli MG1655 harboring pIbpA-lux assessed as maximum induction factor at 10^-8 M after 120 mins by luminometric analysis; assay type: functional, K-12 substr. MG1655
Escherichia coli [4] = assay: Antibacterial activity against Escherichia coli MG1655 harboring pRecA-lux assessed as maximum induction factor at 10^-7 M after 120 mins by luminometric analysis; assay type: functional, K-12 substr. MG1655
Escherichia coli [5] = assay: Antibacterial activity against Escherichia coli MG1655 harboring pIbpA-lux assessed as maximum induction factor at 10^-9 M after 120 mins by luminometric analysis; assay type: functional, K-12 substr. MG1655
Escherichia coli [6] = assay: Antibacterial activity against Escherichia coli MG1655 harboring pColD-lux assessed as maximum induction factor at 10^-6 M after 120 mins by luminometric analysis; assay type: functional, K-12 substr. MG1655
Escherichia coli [7] = assay: Antibacterial activity against Escherichia coli MG1655 harboring pColD-lux assessed as maximum induction factor at 10^-8 M after 120 mins by luminometric analysis; assay type: functional, K-12 substr. MG1655
Vibrio sp. [8] = assay: Antibacterial activity against Vibrio aqamarinus VKPM B-11245 assessed as toxicity index at 10^-5 M measured for 2 hrs by luminometric analysis; assay type: functional
Escherichia coli [9] = assay: Antibacterial activity against Escherichia coli MG1655 harboring pSoxS-lux assessed as maximum induction factor at 10^-13 M after 120 mins by luminometric analysis; assay type: functional, K-12 substr. MG1655
[10] = Activation of quorum sensing system luxR in Escherichia coli MG1655 harboring pVFR1-lux assessed as maximum induction factor at 10^-13 M after 120 mins by luminometric analysis; conditions: Escherichia coli str. K-12 substr. MG1655
Escherichia coli [11] = assay: Antibacterial activity against Escherichia coli MG1655 harboring pRecA-lux assessed as maximum induction factor at 10^-5 M after 120 mins by luminometric analysis; assay type: functional, K-12 substr. MG1655
Escherichia coli [12] = assay: Antibacterial activity against Escherichia coli MG1655 harboring pRecA-lux assessed as maximum induction factor at 10^-12 M after 120 mins by luminometric analysis; assay type: functional, K-12 substr. MG1655
Escherichia coli [13] = assay: Antibacterial activity against Escherichia coli MG1655 harboring pKatG-lux assessed as maximum induction factor at 10^-10 M after 120 mins by luminometric analysis; assay type: functional, K-12 substr. MG1655
Escherichia coli [14] = assay: Antibacterial activity against Escherichia coli MG1655 harboring pIbpA-lux assessed as maximum induction factor at 10^-4 M after 120 mins by luminometric analysis; assay type: functional, K-12 substr. MG1655
Escherichia coli [15] = assay: Antibacterial activity against Escherichia coli MG1655 harboring pGrpE-lux assessed as maximum induction factor at 10^-4 M after 120 mins by luminometric analysis; assay type: functional, K-12 substr. MG1655
Escherichia coli [16] = assay: Antibacterial activity against Escherichia coli MG1655 harboring pXen7 assessed as toxicity index at 10^-7 M measured for 2 hrs by luminometric analysis; assay type: functional, K-12 substr. MG1655
Escherichia coli [17] = assay: Antibacterial activity against Escherichia coli MG1655 harboring pGrpE-lux assessed as maximum induction factor at 10^-3 M after 120 mins by luminometric analysis; assay type: functional, K-12 substr. MG1655
Escherichia coli [18] = assay: Antibacterial activity against Escherichia coli MG1655 harboring pSoxS-lux assessed as maximum induction factor at 10^-8 M after 120 mins by luminometric analysis; assay type: functional, K-12 substr. MG1655
Escherichia coli [19] = assay: Antibacterial activity against Escherichia coli MG1655 harboring pRecA-lux assessed as maximum induction factor at 10^-11 M after 120 mins by luminometric analysis; assay type: functional, K-12 substr. MG1655
Vibrio sp. [20] = assay: Antibacterial activity against Vibrio aqamarinus VKPM B-11245 assessed as toxicity index at 10^-8 M measured for 2 hrs by luminometric analysis; assay type: functional
Escherichia coli [21] = assay: Antibacterial activity against Escherichia coli MG1655 harboring pKatG-lux assessed as maximum induction factor at 10^-11 M after 120 mins by luminometric analysis; assay type: functional, K-12 substr. MG1655
Vibrio sp. [22] = assay: Antibacterial activity against Vibrio aqamarinus VKPM B-11245 assessed as toxicity index at 10^-11 M measured for 2 hrs by luminometric analysis; assay type: functional
Escherichia coli [23] = assay: Antibacterial activity against Escherichia coli MG1655 harboring pRecA-lux assessed as maximum induction factor at 10^-4 M after 120 mins by luminometric analysis; assay type: functional, K-12 substr. MG1655
Escherichia coli [24] = assay: Antibacterial activity against Escherichia coli MG1655 harboring pXen7 assessed as toxicity index at 10^-14 M measured for 2 hrs by luminometric analysis; assay type: functional, K-12 substr. MG1655
Escherichia coli [25] = assay: Antibacterial activity against Escherichia coli MG1655 harboring pGrpE-lux assessed as maximum induction factor at 10^-8 M after 120 mins by luminometric analysis; assay type: functional, K-12 substr. MG1655
Escherichia coli [26] = assay: Antibacterial activity against Escherichia coli MG1655 harboring pXen7 assessed as toxicity index at 10^-4 M measured for 2 hrs by luminometric analysis; assay type: functional, K-12 substr. MG1655
Escherichia coli [27] = assay: Antibacterial activity against Escherichia coli MG1655 harboring pKatG-lux assessed as maximum induction factor at 10^-6 M after 120 mins by luminometric analysis; assay type: functional, K-12 substr. MG1655
Escherichia coli [28] = assay: Antibacterial activity against Escherichia coli MG1655 harboring pSoxS-lux assessed as maximum induction factor at 10^-12 M after 120 mins by luminometric analysis; assay type: functional, K-12 substr. MG1655
Vibrio sp. [29] = assay: Antibacterial activity against Vibrio aqamarinus VKPM B-11245 assessed as toxicity index at 10^-6 M measured for 2 hrs by luminometric analysis; assay type: functional
Vibrio sp. [30] = assay: Antibacterial activity against Vibrio aqamarinus VKPM B-11245 assessed as toxicity index at 10^-7 M measured for 2 hrs by luminometric analysis; assay type: functional
Escherichia coli [31] = assay: Antibacterial activity against Escherichia coli MG1655 harboring pGrpE-lux assessed as maximum induction factor at 10^-9 M after 120 mins by luminometric analysis; assay type: functional, K-12 substr. MG1655
Escherichia coli [32] = assay: Antibacterial activity against Escherichia coli MG1655 harboring pGrpE-lux assessed as maximum induction factor at 10^-6 M after 120 mins by luminometric analysis; assay type: functional, K-12 substr. MG1655
Escherichia coli [33] = assay: Antibacterial activity against Escherichia coli MG1655 harboring pColD-lux assessed as maximum induction factor at 10^-4 M after 120 mins by luminometric analysis; assay type: functional, K-12 substr. MG1655
[34] = Activation of quorum sensing system luxR in Escherichia coli MG1655 harboring pVFR1-lux assessed as maximum induction factor at 10^-12 M after 120 mins by luminometric analysis; conditions: Escherichia coli str. K-12 substr. MG1655
Escherichia coli [35] = assay: Antibacterial activity against Escherichia coli MG1655 harboring pColD-lux assessed as maximum induction factor at 10^-3 M after 120 mins by luminometric analysis; assay type: functional, K-12 substr. MG1655
Escherichia coli [36] = assay: Antibacterial activity against Escherichia coli MG1655 harboring pGrpE-lux assessed as maximum induction factor at 10^-5 M after 120 mins by luminometric analysis; assay type: functional, K-12 substr. MG1655
Escherichia coli [37] = assay: Antibacterial activity against Escherichia coli MG1655 harboring pRecA-lux assessed as maximum induction factor at 10^-8 M after 120 mins by luminometric analysis; assay type: functional, K-12 substr. MG1655
Escherichia coli [38] = assay: Antibacterial activity against Escherichia coli MG1655 harboring pSoxS-lux assessed as maximum induction factor at 10^-5 M after 120 mins by luminometric analysis; assay type: functional, K-12 substr. MG1655
Escherichia coli [39] = assay: Antibacterial activity against Escherichia coli MG1655 harboring pXen7 assessed as toxicity index at 10^-10 M measured for 2 hrs by luminometric analysis; assay type: functional, K-12 substr. MG1655
Escherichia coli [40] = assay: Antibacterial activity against Escherichia coli MG1655 harboring pSoxS-lux assessed as maximum induction factor at 10^-7 M after 120 mins by luminometric analysis; assay type: functional, K-12 substr. MG1655

## O=[N+]([O-])c1cc([N+](=O)[O-])c2no[n+]([O-])c2c1Sc1nc2ccccc2s1
Escherichia coli [1]
  Activity: 1.15
Escherichia coli [2]
  Activity: 0.92
Escherichia coli [3]
  Activity: 1.18
Escherichia coli [4]
  Activity: 1.01
Escherichia coli [5]
  Activity: 1.09
Escherichia coli [6]
  Activity: 1.04
Escherichia coli [7]
  Activity: 1.08
Vibrio sp. [8]
  Activity: 98.83
Escherichia coli [9]
  Activity: 1.03
[10]
  Activity: 1.77
Escherichia coli [11]
  Activity: 0.93
Escherichia coli [12]
  Activity: 0.94
Escherichia coli [13]
  Activity: 1.02
Escherichia coli [14]
  Activity: 0.63
Escherichia coli [15]
  Activity: 0.51
Escherichia coli [16]
  Activity: 0
Escherichia coli [17]
  Activity: 0.35
Escherichia coli [18]
  Activity: 1.27
Escherichia coli [19]
  Activity: 1.03
Vibrio sp. [20]
  Activity: 5.97
Escherichia coli [21]
  Activity: 1.03
Vibrio sp. [22]
  Activity: 19.14
Escherichia coli [23]
  Activity: 0.85
Escherichia coli [24]
  Activity: 2.74
Escherichia coli [25]
  Activity: 1.08
Escherichia coli [26]
  Activity: 98
Escherichia coli [27]
  Activity: 0.8
Escherichia coli [28]
  Activity: 1.41
Vibrio sp. [29]
  Activity: 73.17
Vibrio sp. [30]
  Activity: 22.52
Escherichia coli [31]
  Activity: 1.03
Escherichia coli [32]
  Activity: 1.15
Escherichia coli [33]
  Activity: 1.48
[34]
  Activity: 2.96
Escherichia coli [35]
  Activity: 0.08
Escherichia coli [36]
  Activity: 0.88
Escherichia coli [37]
  Activity: 0.99
Escherichia coli [38]
  Activity: 0.99
Escherichia coli [39]
  Activity: 3.82
Escherichia coli [40]
  Activity: 1.02

— ChEMBL document CHEMBL3407459, “Synthesis and antimicrobial activity of novel structural hybrids of benzofuroxan and benzothiazole derivatives” (2015)
